# In ChEMBL document CHEMBL1275550, “In vitro activity of doripenem, a carbapenem for the treatment of challenging infections caused by gram-negative bacteria, against recent clinical isolates from the United States” (2008):
# Legend:
# [1] = tested on: Escherichia coli; experiment: Antimicrobial activity against Escherichia coli by broth microdilution method; assay type: functional
# [2] = tested on: Klebsiella pneumoniae; experiment: Antimicrobial activity against Klebsiella pneumoniae assessed as intermediate isolate by broth microdilution method; assay type: functional
# [3] = tested on: Pseudomonas aeruginosa; experiment: Antimicrobial activity against Pseudomonas aeruginosa isolated from ICU patient assessed as resistant isolate by broth microdilution method
# [4] = tested on: Serratia marcescens; experiment: Antimicrobial activity against Ceftazidime non-susceptible Serratia marcescens by broth microdilution method; assay type: functional
# [5] = tested on: Streptococcus pneumoniae; experiment: Antimicrobial activity against penicillin-intermediate Streptococcus pneumoniae assessed as intermediate isolate by broth microdilution method; assay type: functional
# [6] = tested on: Escherichia coli; experiment: Antimicrobial activity against Non-ESBL Escherichia coli by broth microdilution method; assay type: functional
# [7] = tested on: Pseudomonas aeruginosa; experiment: Antimicrobial activity against Ceftazidime non-susceptible Pseudomonas aeruginosa assessed as resistant isolate by broth microdilution method; assay type: functional
# [8] = tested on: Enterobacteriaceae; experiment: Antimicrobial activity against Enterobacteriaceae assessed as intermediate isolate by broth microdilution method; assay type: functional
# [9] = tested on: Acinetobacter; experiment: Antimicrobial activity against imipenem non-susceptible Acinetobacter assessed as susceptible isolate by broth microdilution method; assay type: functional
# [10] = tested on: Klebsiella pneumoniae; experiment: Antimicrobial activity against ESBL producing Klebsiella pneumoniae assessed as susceptible isolate by broth microdilution method; assay type: functional
# [11] = tested on: Enterobacteriaceae; experiment: Antimicrobial activity against Enterobacteriaceae by broth microdilution method; assay type: functional
# [12] = tested on: Serratia marcescens; experiment: Antimicrobial activity against Serratia marcescens by broth microdilution method; assay type: functional
# [13] = tested on: Pseudomonas aeruginosa; experiment: Antimicrobial activity against Ceftazidime non-susceptible Pseudomonas aeruginosa assessed as susceptible isolate by broth microdilution method; assay type: functional
# [14] = tested on: Escherichia coli; experiment: Antimicrobial activity against ESBL producing Escherichia coli by broth microdilution method; assay type: functional
# [15] = tested on: Streptococcus pneumoniae; experiment: Antimicrobial activity against […] assessed as susceptible isolate by broth microdilution method; assay type: functional
# [16] = tested on: Escherichia coli; experiment: Antimicrobial activity against Escherichia coli assessed as intermediate isolate by broth microdilution method; assay type: functional
# [17] = tested on: Staphylococcus aureus; experiment: Antimicrobial activity against methicillin-susceptible Staphylococcus aureus assessed as susceptible isolate by broth microdilution method; assay type: functional
# [18] = tested on: Pseudomonas aeruginosa; experiment: Antimicrobial activity against Ceftazidime non-susceptible Pseudomonas aeruginosa assessed as intermediate isolate by broth microdilution method; assay type: functional
# [19] = tested on: Serratia marcescens; experiment: Antimicrobial activity against Ceftazidime susceptible Serratia marcescens by broth microdilution method; assay type: functional
# [20] = tested on: Proteus mirabilis; experiment: Antimicrobial activity against Non-ESBL Proteus mirabilis assessed as susceptible isolate by broth microdilution method; assay type: functional
# [21] = tested on: Proteus mirabilis; experiment: Antimicrobial activity against Proteus mirabilis assessed as susceptible isolate by broth microdilution method; assay type: functional
# [22] = tested on: Acinetobacter; experiment: Antimicrobial activity against Acinetobacter assessed as susceptible isolate by broth microdilution method; assay type: functional
# [23] = tested on: Pseudomonas aeruginosa; experiment: Antimicrobial activity against Ceftazidime susceptible Pseudomonas aeruginosa by broth microdilution method; assay type: functional
# [24] = tested on: Citrobacter; experiment: Antimicrobial activity against Citrobacter with derepressed AmpC beta-lactamsae by broth microdilution method; assay type: functional
# [25] = tested on: Citrobacter; experiment: Antimicrobial activity against Citrobacter with derepressed AmpC beta-lactamsae assessed as intermediate isolate by broth microdilution method; assay type: functional
# [26] = tested on: Pseudomonas aeruginosa; experiment: Antimicrobial activity against imipenem non-susceptible Pseudomonas aeruginosa assessed as intermediate isolate by broth microdilution method; assay type: functional
# [27] = tested on: Citrobacter; experiment: Antimicrobial activity against Citrobacter by broth microdilution method; assay type: functional
# [28] = tested on: Klebsiella pneumoniae; experiment: Antimicrobial activity against ESBL producing Klebsiella pneumoniae assessed as intermediate isolate by broth microdilution method; assay type: functional
# [29] = tested on: Enterobacteriaceae; experiment: Antimicrobial activity against ceftazidime-susceptible Enterobacteriaceae assessed as resistant isolate by broth microdilution method; assay type: functional
# [30] = tested on: Staphylococcus; experiment: Antimicrobial activity against methicillin-susceptible coagulase-negative Staphylococcus by broth microdilution method; assay type: functional; settings: Staphylococcus
# [31] = tested on: Pseudomonas aeruginosa; experiment: Antimicrobial activity against Pseudomonas aeruginosa isolated from non-ICU patient assessed as resistant isolate by broth microdilution method
# [32] = tested on: Enterobacter cloacae; experiment: Antimicrobial activity against Enterobacter cloacae with derepressed AmpC beta-lactamsae assessed as susceptible isolate by broth microdilution method; assay type: functional
# [33] = tested on: Enterobacteriaceae; experiment: Antimicrobial activity against Ceftazidime non-susceptible Enterobacteriaceae assessed as intermediate isolate by broth microdilution method; assay type: functional
# [34] = tested on: Acinetobacter; experiment: Antimicrobial activity against imipenem non-susceptible Acinetobacter by broth microdilution method; assay type: functional
# [35] = tested on: Escherichia coli; experiment: Antimicrobial activity against Non-ESBL Escherichia coli assessed as susceptible isolate by broth microdilution method; assay type: functional
# [36] = tested on: Escherichia coli; experiment: Antimicrobial activity against Escherichia coli assessed as susceptible isolate by broth microdilution method; assay type: functional
# [37] = tested on: Serratia marcescens; experiment: Antimicrobial activity against Ceftazidime susceptible Serratia marcescens assessed as resistant isolate by broth microdilution method; assay type: functional
# [38] = tested on: Proteus mirabilis; experiment: Antimicrobial activity against ESBL producing Proteus mirabilis by broth microdilution method; assay type: functional
# [39] = tested on: Escherichia coli; experiment: Antimicrobial activity against ESBL producing Escherichia coli assessed as intermediate isolate by broth microdilution method; assay type: functional
# [40] = tested on: Enterobacter cloacae; experiment: Antimicrobial activity against Enterobacter cloacae with derepressed AmpC beta-lactamsae by broth microdilution method; assay type: functional
# [41] = tested on: Pseudomonas aeruginosa; experiment: Antimicrobial activity against Pseudomonas aeruginosa isolated from ICU patient assessed as intermediate isolate by broth microdilution method
# [42] = tested on: Proteus mirabilis; experiment: Antimicrobial activity against ESBL producing Proteus mirabilis assessed as susceptible isolate by broth microdilution method; assay type: functional
# [43] = tested on: Pseudomonas aeruginosa; experiment: Antimicrobial activity against Pseudomonas aeruginosa isolated from ICU patient assessed as susceptible isolate by broth microdilution method
# [44] = tested on: Citrobacter; experiment: Antimicrobial activity against Citrobacter with nonderepressed AmpC beta-lactamsae assessed as resistant isolate by broth microdilution method; assay type: functional
# [45] = tested on: Enterobacter cloacae; experiment: Antimicrobial activity against Enterobacter cloacae with nonderepressed AmpC beta-lactamsae assessed as intermediate isolate by broth microdilution method; assay type: functional
# [46] = tested on: Acinetobacter; experiment: Antimicrobial activity against imipenem non-susceptible Acinetobacter assessed as intermediate isolate by broth microdilution method; assay type: functional
# [47] = tested on: Pseudomonas aeruginosa; experiment: Antimicrobial activity against Ceftazidime susceptible Pseudomonas aeruginosa assessed as resistant isolate by broth microdilution method; assay type: functional
# [48] = tested on: Pseudomonas aeruginosa; experiment: Antimicrobial activity against imipenem non-susceptible Pseudomonas aeruginosa by broth microdilution method; assay type: functional
# [49] = tested on: Acinetobacter; experiment: Antimicrobial activity against Acinetobacter assessed as resistant isolate by broth microdilution method; assay type: functional
# [50] = tested on: Staphylococcus; experiment: Antimicrobial activity against methicillin-resistant coagulase-negative Staphylococcus by broth microdilution method; assay type: functional
structure (smiles),measurement,setting,value
C[C@@H](O)[C@H]1C(=O)N2C(C(=O)O)=C(SCCNC=N)C[C@H]12 [IMIPENEM ANHYDROUS],MIC50,[1],0.25 µg/mL
same,MIC90,[1],0.5 µg/mL
same,Activity,[2],0.2%
same,Activity,[3],26.6%
same,MIC50,[4],2 µg/mL
same,MIC90,[4],4 µg/mL
same,Activity,[5],84.4%
same,MIC50,[6],0.25 µg/mL
same,MIC90,[6],0.5 µg/mL
same,Activity,[7],36.4%
same,Activity,[8],0.4%
same,Activity,[9],0%
same,Activity,[10],95.5%
same,MIC50,[11],0.5 µg/mL
same,MIC90,[11],2 µg/mL
same,MIC50,[12],2 µg/mL
same,MIC90,[12],4 µg/mL
same,Activity,[13],55.5%
same,MIC50,[14],0.5 µg/mL
same,MIC90,[14],1 µg/mL
same,Activity,[15],99.9%
same,Activity,[16],0%
same,Activity,[17],100%
same,Activity,[18],8.2%
same,MIC50,[19],2 µg/mL
same,MIC90,[19],4 µg/mL
same,Activity,[20],97.3%
same,Activity,[21],97.3%
same,Activity,[22],82.4%
same,MIC50,[23],4 µg/mL
same,MIC90,[23],16 µg/mL
same,MIC50,[24],1 µg/mL
same,MIC90,[24],2 µg/mL
same,Activity,[25],0%
same,Activity,[26],32.4%
same,MIC50,[27],1 µg/mL
same,MIC90,[27],2 µg/mL
same,Activity,[28],2.3%
same,Activity,[29],0.1%
same,MIC50,[30]; read-out: MIC50,≤ 0.015 µg/mL
same,MIC90,[30]; read-out: MIC90,0.03 µg/mL
same,Activity,[31],17.2%
same,Activity,[32],100%
same,Activity,[33],1.7%
same,MIC50,[34],> 32 µg/mL
same,MIC90,[34],> 32 µg/mL
same,Activity,[35],100%
same,Activity,[36],100%
same,Activity,[37],0.8%
same,MIC,[38],0.5 µg/mL
same,Activity,[39],0%
same,MIC50,[40],1 µg/mL
same,MIC90,[40],2 µg/mL
same,Activity,[41],5.8%
same,Activity,[42],100%
same,Activity,[43],67.6%
same,Activity,[44],0.2%
same,Activity,[45],0.5%
same,Activity,[46],3.9%
same,Activity,[47],13.1%
same,MIC50,[48],16 µg/mL
same,MIC90,[48],> 32 µg/mL
same,Activity,[49],17%
same,MIC50,[50],0.25 µg/mL
same,MIC90,[50],16 µg/mL
